Data published in patent publication US12060349B2, “Glucosylceramide synthase inhibitors” (Genzyme Corporation, priority 2012, dated 2024).
Read-outs that look alike come from different tables or passages of the source.

Experiments:
B16 mouse melanoma cells = assay: cell viability in the B16 cell-based assay (Viability, B16 IC50); conditions: concentration causing 50% cell death, values greater than 10 represent a lack of cell death, read-out: Viability, B16 IC50
Method: (§1) The cell based assay was performed in two different cell types, B16 and C32. Cell viability was also assessed in the second, cell-based assay.
(§2) The “Compound Number” in the table corresponds to the compound disclosed in the Example of the same number. […] The results of the cell based assays (performed in two different cell systems, i.e. B16 mouse melanoma or C32 human melanoma cells) are expressed as “GM3 B16 IC50” or “GM3 C32 IC50” for the B16 assay and the C32 assay, respectively. […] The results of the viability assays are expressed as “Viability, B16 IC50” or “Viability, C32 IC50”, respectively. These values represent the concentration of the compound causing 50% cell death. Values greater than 10 represent a lack of cell death.

[1] = tested on: GM3 expression on the cell surface, B16 mouse melanoma cells; assay: cell based phenotypic assay, cell surface GM3 by antibody mediated immunofluorescence, B16 (GM3 B16 IC50); conditions: 50% inhibition of GM3 expression on the cell surface
Method: as §1, §2

[2] = tested on: GM3 expression on the cell surface, C32 human melanoma cells; assay: cell based phenotypic assay, cell surface GM3 by antibody mediated immunofluorescence, C32 (GM3 C32 IC50); conditions: 50% inhibition of GM3 expression on the cell surface
Method: as §1, §2

C32 human melanoma cells = assay: cell viability in the C32 cell-based assay (Viability, C32 IC50)
Method: as §1, §2

[3] = molecular target: T1, glucosylceramide synthase (Homo sapiens, UniProt Q16739); assay: microsomal assay measuring conversion of ceramide to glucosylceramide by HPLC (GCS IC50); format: biochemical; conditions: concentration causing 50% inhibition of glucosylceramide synthase activity
T1 construct: Microsomes were isolated from A375 human melanoma cells; endogenous in cells; host or cells: A375 human melanoma cells (microsomal fraction, 100,000 g pellet)
T1 sequence (Q16739 1-394): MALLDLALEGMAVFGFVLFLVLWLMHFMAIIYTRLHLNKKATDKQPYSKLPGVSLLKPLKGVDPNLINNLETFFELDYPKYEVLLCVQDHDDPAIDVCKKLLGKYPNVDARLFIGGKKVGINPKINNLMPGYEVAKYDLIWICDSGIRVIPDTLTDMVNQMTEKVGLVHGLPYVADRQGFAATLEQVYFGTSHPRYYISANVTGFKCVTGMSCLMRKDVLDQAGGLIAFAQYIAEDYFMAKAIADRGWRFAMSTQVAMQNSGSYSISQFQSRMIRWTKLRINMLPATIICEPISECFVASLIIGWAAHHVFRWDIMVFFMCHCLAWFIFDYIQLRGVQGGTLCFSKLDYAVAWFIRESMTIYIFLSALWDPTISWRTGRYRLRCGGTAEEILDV
Method: Inhibition of glucosylceramide synthase activity for certain compounds of the invention were measured with 1) a microsomal assay that directly measures the conversion of ceramide to glucosylceramide by HPLC and 2) second, cell based, phenotypic assay that monitors cell surface expression of the downstream lipid GM3 by antibody mediated immunofluorescence. The cell based assay was performed in two different cell types, B16 and C32. Cell viability was also assessed in the second, cell-based assay.
The “Compound Number” in the table corresponds to the compound disclosed in the Example of the same number. The results of the microsomal assay are expressed as “GCS IC50”, which represents the concentration of the compound causing 50% inhibition of glucosylceramide synthase activity. The results of the cell based assays (performed in two different cell systems, i.e. B16 mouse melanoma or C32 human melanoma cells) are expressed as “GM3 B16 IC50” or “GM3 C32 IC50” for the B16 assay and the C32 assay, respectively. These values represent the concentration of the compound causing 50% inhibition of GM3 expression on the cell surface. The results of the viability assays are expressed as “Viability, B16 IC50” or “Viability, C32 IC50”, respectively. These values represent the concentration of the compound causing 50% cell death. Values greater than 10 represent a lack of cell death.

[4] = B16 mouse melanoma cells, read-out: GM3 B16 IC50
[5] = C32 human melanoma cells, read-out: GM3 C32 IC50
[6] = C32 cells; concentration causing 50% cell death; values greater than 10 represent a lack of cell death; read-out: Viability, C32 IC50
[7] = Homo sapiens, C32, C32 cells; concentration causing 50% cell death; values greater than 10 represent a lack of cell death; read-out: Viability, C32 IC50

IC50 ([1]; Mus musculus, B16 mouse melanoma cells, read-out: GM3 B16 IC50) [nM]	IC50 ([2]; Homo sapiens, C32 human melanoma cells, read-out: GM3 C32 IC50) [nM]	Molecule	IC50 (B16 mouse melanoma cells; B16 cells) [nM]	IC50 [1, 4] [nM]	IC50 [2, 5] [nM]	IC50 (C32 human melanoma cells; [6]) [nM]	IC50 [3] [nM]	IC50 (B16 mouse melanoma cells; Mus musculus, B16, B16 cells) [nM]	IC50 (C32 human melanoma cells; [7]) [nM]	IC50 ([1]; Mus musculus, read-out: GM3 B16 IC50, B16 mouse melanoma cells) [nM]	IC50 ([2]; Homo sapiens, read-out: GM3 C32 IC50, C32 human melanoma cells) [nM]	IC50 (C32 human melanoma cells; read-out: Viability, C32 IC50; C32 cells; concentration causing 50% cell death; values greater than 10 represent a lack of cell death) [nM]
		1-(4-(4-(2-Methoxyethoxy)phenyl)-2-methylbut-3-yn-2-yl)-3-(3-propylquinuclidin-3-yl)urea [Example 330]	≥ 10000	203	6.41	3160	104					
		1-(4-(4-Fluorophenoxy)pyrimidin-2-yl)-N-(3-methylquinuclidin-3-yl)piperidine-4-carboxamide [Example 121]	7650	26.3	0.093	100	1.33					
		1-(5-Fluoro-4-(4-(2-methoxyethoxy)phenyl)pyrimidin-2-yl)-N-(3-methylquinuclidin-3-yl)piperidine-4-carboxamide [Example 57]	≥ 10000	69.3	0.169	1000	2.41					
		1-Azabicyclo[3.2.2]nonan-3-yl 4-(4′-fluoro-[1,1′-biphenyl]-3-yl)piperazine-1-carboxylate [Example 25]	5390	4860	9380	5410	3480					
		2-(3-(3-(Methylcarbamoyl)phenoxy)phenyl)propan-2-ylcarbamate [Example 295]	≥ 10000	1750	147	≥ 10000	1020					
		3-Ethyl-N-(4-methyl-1-azabicyclo[3.2.2]nonan-4-yl)-4-(4-phenylpyrimidin-2-yl)piperazine-1-carboxamide [Example 143]	3110	52.3	0.304	3160	1.79					
		4-(4-(4-Fluorophenyl)pyrimidin-2-yl)-3-methyl-N-(4-methyl-1-azabicyclo[3.2.2]nonan-4-yl)piperazine-1-carboxamide [Example 146]	6370	110	0.559	1000	16.6					
		4-(4′-Fluoro-[1,1′-biphenyl]-3-yl)-N-(4-methyl-1-azabicyclo[3.2.2]nonan-4-yl)piperazine-1-carboxamide [Example 22]	7060	629	41.1	1000	613					
		4-([1,1′-Biphenyl]-3-yl)-3-methyl-N-(4-methyl-1-azabicyclo[3.2.2]nonan-4-yl)piperazine-1-carboxamide [Example 32]	7290	462	46.5	3160	544					
96	1	C[C@@H]1CN(C(=O)NC2(C)CCN3CCC2CC3)C[C@H](C)N1c1nccc(-c2ccccc2)n1 (relative stereo) [Example 147, cis-3,5-Dimethyl-N-(4-methyl-1-azabicyclo[3.2.2]nonan-4-yl)-4-(4-phenylpyrimidin-2-yl)piperazine-1-carboxamide]					5.45	3510	1000			
		CC1(NC(=O)C2CCN(c3nccc(-c4ccc(F)cc4)n3)CC2)CCN2CCC1CC2 (single isomer, unassigned) [Example 42, 1-(4-(4-Fluorophenyl)pyrimidin-2-yl)-N-(4-methyl-1-azabicyclo[3.2.2]nonan-4-yl)piperidine-4-carboxamide]		918	9.82		94.1	7660	4640			
		CCOc1ccc(-c2cccc(C(C)(C)NC(=O)OC3CN4CCC3CC4)c2)nn1 (centres unmarked) [Example 318, Quinuclidin-3-yl (2-(3-(6-ethoxypyridazin-3-yl)phenyl)propan-2-yl)carbamate]					1460			635	69.9	1000
